Measurements from patent US20080103110A1, “Compounds” (DRUG DISCOVERY LABORATORY AS, priority 2004, published 2008).
Structures can show the parent of a compound that is named as a salt.

These compounds were tested against T1, bovine serum albumin (BSA) (Bos taurus, UniProt P02769) (assay: Protein binding studies: BSA solution, centrifugal filter devices, drug in filtrate by HPLC). Conditions: 6-mercaptopurine and 6-mercaptopurine prodrugs; method of Example 7, 4% BSA, 37° C.
T1 construct: a solution of bovine serum albumin (BSA) in water
Format: in vitro ADME
Protocol: The compound (approximately 5 mg) was dissolved in DMSO (approximately 1.8 ml). A small sample of this DMSO solution (approximately 5 mg) was added to a solution of bovine serum albumin (BSA) in water (approximately 1.8 ml, 4% BSA). Another sample of the DMSO solution (approximately 5 mg) was added to a solution of phosphate buffer pH 7.4 (isotonic) (approximately 1.8 ml).
Both samples were shaken in a water bath for 30 minutes at 37° C.
The devices were centrifugated at 4000 rpm for 1 hour at 37° C.
The amount of drug in the filtrates was determined by HPLC (C-18 column, phosphate buffer pH 2.2/acetonitrile, UV detection).

T1 sequence (P02769 25-607): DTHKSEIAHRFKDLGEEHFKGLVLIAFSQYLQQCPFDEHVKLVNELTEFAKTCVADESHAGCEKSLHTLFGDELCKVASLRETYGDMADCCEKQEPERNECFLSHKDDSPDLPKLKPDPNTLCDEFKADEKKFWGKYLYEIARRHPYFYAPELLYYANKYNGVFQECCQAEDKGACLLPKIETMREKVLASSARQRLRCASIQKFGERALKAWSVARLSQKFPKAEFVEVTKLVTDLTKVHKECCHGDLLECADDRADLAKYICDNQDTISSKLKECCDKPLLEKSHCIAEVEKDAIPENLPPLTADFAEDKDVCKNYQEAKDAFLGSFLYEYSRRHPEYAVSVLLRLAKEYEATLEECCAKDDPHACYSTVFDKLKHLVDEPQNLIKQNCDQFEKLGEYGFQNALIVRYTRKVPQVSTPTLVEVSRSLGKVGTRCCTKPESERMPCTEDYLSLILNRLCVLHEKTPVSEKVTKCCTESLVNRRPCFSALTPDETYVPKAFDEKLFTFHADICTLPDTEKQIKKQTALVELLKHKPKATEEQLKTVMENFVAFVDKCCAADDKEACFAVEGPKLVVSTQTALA

Compound	% Albumin binding
Sc1ncnc2nc[nH]c12 [6-Mercaptopurine, reference compound]	10%
COC(=O)CCCCCSc1ncnc2[nH]cnc12 [Example 9, 6-(1H-purin-6-ylthio)-hexanoic acid methyl ester]	72%
COC(=O)CCCCCCCCCCCSc1ncnc2[nH]cnc12 [Example 10, 12-(1H-purin-6-ylthio)-dodecanoic acid methyl ester]	insoluble
O=C(O)CCCCCCCCCCCSc1ncnc2[nH]cnc12 [Example 11, 12-(1H-purin-6-ylthio)dodecanoic acid]	100%

Same assay, conditions: didanosine and didanosine prodrugs; method of Example 7, 4% BSA, 37° C.

Compound	% Albumin binding
O=C(O)CCCCC(=O)OCC1CCC(n2cnc3c(=O)[nH]cnc32)O1 (stereo not drawn) [Example 21, 2′,3′-dideoxy-5′-hydrogen hexanedioate inosine]	100%
O=C(O)CCCCCCC(=O)OCC1CCC(n2cnc3c(=O)[nH]cnc32)O1 (stereo not drawn) [Example 22, 2′,3′-dideoxy-5′-hydrogen octanedioate inosine]	10%
O=C(O)CCCCCCCCCCC(=O)OCC1CCC(n2cnc3c(=O)[nH]cnc32)O1 (stereo not drawn) [Example 23, 2′,3′-dideoxy-5′-hydrogen dodecanedioate inosine]	40%
CC(C)(C)OC(=O)OC[C@@H]1CC[C@H](n2cnc3c(O)ncnc32)O1 [Example 24, 5′-Boc,-2′3′-dideoxyinosine]	94%

Same assay, conditions: didanosine derivatives of Examples 24 and 25; 4% BSA, 37° C.

Compound	% Protein Binding
O=C(O)Cc1ccccc1CC(=O)OC[C@@H]1CC[C@H](n2cnc3c(O)ncnc32)O1 [5′-(2′3′-dideoxyinosine) mono 1,2-benzenediacetic acid ester]	25%
O=C(O)CCc1ccc(CCC(=O)OC[C@@H]2CC[C@H](n3cnc4c(O)ncnc43)O2)cc1 [5′-(2′3′-dideoxyinosine) mono 1,4-benzenedipropionic acid ester]	63%
O=C(O)Cc1cccc(CC(=O)OC[C@@H]2CC[C@H](n3cnc4c(O)ncnc43)O2)c1 [5′-(2′,3′-dideoxyinosine) mono 1,3-benzenediacetic acid ester]	38%
O=C(O)c1cccc(C(=O)OC[C@@H]2CC[C@H](n3cnc4c(O)ncnc43)O2)c1 [5′-(2′,3′-dideoxyinosine) mono 1,3-benzenedicarboxylic acid ester]	51%
O=C(O)Cc1ccc(CC(=O)OC[C@@H]2CC[C@H](n3cnc4c(O)ncnc43)O2)cc1 [5′-(2′,3′-dideoxyinosine) mono 1,4-benzenediacetic acid ester]	28%
O=C(O)c1ccc(C(=O)OC[C@@H]2CC[C@H](n3cnc4c(O)ncnc43)O2)cc1 [5′-(2′,3′-dideoxyinosine) mono 1,4-benzenedicarboxylic acid ester]	44%
CC(C)(C)OC(=O)OC[C@@H]1CC[C@H](n2cnc3c(O)ncnc32)O1 [Example 24, 5′-Boc,-2′3′-dideoxyinosine]	8%

What follows are compounds tested on nude mice (assay: Toxicity of 5-O-(azelaoyl) 1-beta-D-arabinofuranosyl-cytosine meglumine salt in nude mice). Conditions: 8.5 mg/ml solution, 0.1 ml i.p. twice (second injection on day 3), nude mice (20 g) with implanted human colon cancer, observed for 13 days.
Format: in vivo
Protocol: (§1) A solution of 5′-O-(azelaoyl) 1-β-D-arabinofuranosyl-cytosine meglumine salt was prepared by dissolving N-methyl-D-glucamine (6.0 mg, 0.030 mmol) and 5′-O-(azelaoyl) 1-β-D-arabinofuranosyl-cytosine (8.5 mg, 0.020 mmol) in a sterile saline solution (1.0 ml). The solution was shaken with a ESPE Capmix shaker for 60 seconds before injection.
(§2) The solution for injection (azelaoyl derivative) from Example 46 was administered i.p. twice (0.1 ml) to 4 nude mice (20 g). The mice had implanted human colon cancer on the leg. The second injection was on day 3.

Compound	sign of toxicity
CNC[C@H](O)[C@@H](O)[C@H](O)[C@H](O)CO.Nc1ccn([C@@H]2O[C@H](COC(=O)CCCCCCCC(=O)O)[C@@H](O)[C@@H]2O)c(=O)n1 [Example 45, 5′-O-(azelaoyl) 1-β-D-arabinofuranosyl-cytosine meglumine salt]	did not show any sign of toxicity

These compounds were tested on implanted human colon cancer (assay: Efficacy of cytarabin azelaic acid derivative versus cytarabin, tumor size in nude mice). Conditions: solutions of Example 46, 0.1 ml i.p. twice, tumor size determined at day 13.
Format: in vivo
Protocol: A solution of cytarabin hydrochloride was prepared by dissolving the hydrochloride salt (5.0 mg) in a sterile saline solution (1.0 ml). The solution was shaken with a ESPE Capmix shaker for 60 seconds before injection.
as §1, §2
The solutions (cytarabin and cytarabine azelaic derivative) described in Example 46 were injected as described in Example 47 (4 animals in each group). The size of the tumor was determined at day 13.

Compound	average tumor growth
CNC[C@H](O)[C@@H](O)[C@H](O)[C@H](O)CO.Nc1ccn([C@@H]2O[C@H](COC(=O)CCCCCCCC(=O)O)[C@@H](O)[C@@H]2O)c(=O)n1 [Example 45, 5′-O-(azelaoyl) 1-β-D-arabinofuranosyl-cytosine meglumine salt]	average tumor growth was higher for cytarabin treated mice than for mice treated with azelaic acid derivative
Nc1ccn([C@@H]2O[C@H](CO)[C@@H](O)[C@@H]2O)c(=O)n1 [cytarabin, cytarabin hydrochloride, reference compound]	higher for cytarabin treated mice than for mice treated with azelaic acid derivative
